# Marks after values point to notes of the source that are not given here.
# Key:
# [1] = tested on: human subjects; assay: Effective and maximum tolerable nasal and oral carbon dioxide flow rates measured with laboratory apparatus; format: in vivo
# Description: The test device was a hand-held, multi-dose, disposable, dispenser that was approximately 3 to 4 inches long and 6/8 to ⅞ inches in diameter constructed as described above. The device consisted of a plastic twist-top flow regulator mounted on top of a pressurized steel cartridge containing liquid carbon dioxide. The tip of the flow regulator has a nosepiece that is the optimal size and configuration to place against and seal off a nostril for administration of the gas. In a number of subjects, the effective nasal and oral carbon dioxide flow rates, and maximum tolerable nasal and oral flow rates, were measured using a laboratory apparatus. This apparatus consisted of a flow regulator connected via tubing to a flow meter and a large tank of carbon dioxide. These flow data were used, together with the number of seconds gas was administered during therapy, to calculate the estimated dose of gas in milliliters.
# Initially, the effective nasal and oral, and maximum tolerable nasal and oral carbon dioxide flow rates were measured in seven subjects using a laboratory apparatus. The flow rate selected that is effective or the maximum tolerable rate varies with the individual. At low flow rates, the presence of the carbon dioxide produces a “tingling” sensation similar to that produced during drinking of carbonated beverages that inadvertently enter the nasal passages e.g., “bubbles up the nose”. This is the effective rate and the tingling is a welcome sensation because it usually coincides with immediate relief of symptoms. Above a certain subjectively determined flow rate the sensation becomes unpleasant, which may be described as a “stinging” or “burning” sensation. At a still higher flow rate (maximum tolerable rate), the stinging sensation becomes intolerable and subjects remove the device from their nostril. Also, subjects are more sensitive to the first does of a series for one attack; subsequent doses give less or no sensation. […] The typical effective rate nasally was 1 to 5 ml/sec and 5 to 10 ml/sec orally.
# [2] = tested on: mucous membrane of the nose, nasal passages, and mouth; assay: Effective and tolerable carbon dioxide flows found by the inventors (description); format: in vivo, human
# Description: Furthermore, chronic inflammation of the mucosa and associated distress, caused by extended exposure to allergens and/or antigens, may be relieved within a few minutes by repeating such carbon dioxide applications. A possible mechanism of action of the above described local carbon dioxide treatment is the following. Creating a high concentration of carbon dioxide (hypercapnia) by infusing it into the nasal passages causes a very fast lowering of the pH (making more acidic) of the mucous membranes depressing the neuronal activity (inhibiting inflammatory mediator release such as histamine) of the nerves that supply the nasal mucous membranes and connect directly to the brainstem. Asthma is known to be a comorbid disease to allergic rhinitis. […] In addition, it is known that oxygenation is improved in patients with status asthmaticus, chronic obstructive pulmonary disease, and bronchiolitis by inhalation of helium. Also, inhaled nitric oxide improves the oxygenation and ventilation of most children with acute, hypoxic respiratory failure. For this reason, these respiratory ailments can be reduced or relieved by administering the above-described treatment using carbon dioxide or helium or nitric oxide. Furthermore, headaches (e.g., migraine headaches, tension-type headaches, cluster headaches, jaw pain, facial pain) are thought to be due to triggers creating a hyperexcitability state of nerves releasing inflammatory mediators such as histamine and serotonin. For this reason, headaches can be reduced or relieved by administering the above-described carbon dioxide treatment. Epilepsy, also a nervous hyperexcitability state, is known to be a comorbid disease to headaches and antiepileptic medications are used for migraine prevention. For this reason, epilepsy can be reduced or relieved by administering the above-described carbon dioxide treatment. […] Furthermore, other gases such as nitric oxide, oxygen, helium, and others may be administered similarly as therapeutic gases via the convenient hand-held easily controlled dispenser.
# Furthermore, it is desirable that the user be able to conveniently but precisely and controllably select a rate and duration of carbon dioxide flow that lies between the lower limit of effectiveness and the upper limit of tolerance. […] Flows as low as 1 cc/sec for 1-2 seconds into the nose are effective for suppression of onset of acute allergic symptoms, whereas flows of 4-5 cc/sec for 5-10 seconds are typically selected for optimum relief from a mild chronic allergy attack. For severely inflamed mucosa and/or for injection into the mouth, flows as high as 10 cc/sec or higher for as long as 15 seconds or longer often are selected for optimum relief. For the treatment of tension and migraine headaches, the flow durations can be substantially longer, as generally set forth in the Dosage Guideline (Table I) above.
# At low flow rates, the presence of the carbon dioxide produces a “tingling” sensation similar to that produced during drinking of carbonated beverages that inadvertently enter the nasal passages e.g., “bubbles up the nose”. This is the effective rate and the tingling is a welcome sensation because it usually coincides with immediate relief of symptoms. Above a certain subjectively determined flow rate the sensation becomes unpleasant, which may be described as a “stinging” or “burning” sensation. At a still higher flow rate (maximum tolerable rate), the stinging sensation becomes intolerable and subjects remove the device from their nostril. […] More typically, an injection rate of up to 10 cc/sec can be tolerated for 5 seconds or more into the nose by most users and into the mouth by almost all users. It must be noted, however, that the tolerance level depends strongly on the sequential phase of the application and on the degree of inflammation and/or pain at that phase. […]
# [3] = subject five, experience w/device 0
# [4] = subject four, experience w/device 0
# [5] = subject one, experience w/device >1000
# [6] = subject six, experience w/device 0
# [7] = subject three, experience w/device >1000
# [8] = subject two, experience w/device 0
# [9] = subject, experience w/device >10
smiles,measurement,setting,value
O=C=O [carbon dioxide],"tolerance of high flow rates, oral versus nasal",[1]; seven subjects,better tolerated orally than nasally
same,Effective Nasal Rate,[1]; [3],1 to 2 mL/s
same,Effective Oral Rate,[1]; [3],5 to 10 mL/s
same,Max Tolerable Nasal Rate,[1]; [3],3 mL/s
same,Max Tolerable Oral Rate,[1]; [3],>10* ml/sec
same,Effective Nasal Rate,[1]; [4],2 mL/s
same,Effective Oral Rate,[1]; [4],2 mL/s
same,Max Tolerable Nasal Rate,[1]; [4],4 mL/s
same,Max Tolerable Oral Rate,[1]; [4],>10* ml/sec
same,Effective Nasal Rate,[1]; [5],4 to 5 mL/s
same,Effective Oral Rate,[1]; [5],5 to 10 mL/s
same,Max Tolerable Nasal Rate,[1]; [5],10 mL/s
same,Max Tolerable Oral Rate,[1]; [5],>10* ml/sec
same,Effective Nasal Rate,[1]; [6],<1 mL/s
same,Effective Oral Rate,[1]; [6],5 to 10 mL/s
same,Max Tolerable Nasal Rate,[1]; [6],2 mL/s
same,Max Tolerable Oral Rate,[1]; [6],>10* ml/sec
same,Effective Nasal Rate,[1]; [7],4 to 5 mL/s
same,Effective Oral Rate,[1]; [7],5 to 10 mL/s
same,Max Tolerable Nasal Rate,[1]; [7],10 mL/s
same,Max Tolerable Oral Rate,[1]; [7],>10* ml/sec
same,Effective Nasal Rate,[1]; [8],<1 mL/s
same,Effective Oral Rate,[1]; [8],>10* ml/sec
same,Max Tolerable Nasal Rate,[1]; [8],<1 mL/s
same,Max Tolerable Oral Rate,[1]; [8],>10* ml/sec
same,Effective Nasal Rate,[1]; [9],4 to 5 mL/s
same,Effective Oral Rate,[1]; [9],5 to 10 mL/s
same,Max Tolerable Nasal Rate,[1]; [9],10 mL/s
same,Max Tolerable Oral Rate,[1]; [9],>10* ml/sec
same,tolerance level,"[2]; a few individuals, a second or less of injection into the nose",1-2 cc/sec
same,suppression of onset of acute irritation of the mucosa,"[2]; bathing mucous membrane of nose, nasal passages and mouth with gaseous carbon dioxide",times as short as one second can suppress the onset of acute irritation of the mucosa
same,effective flow,"[2]; for 1-2 seconds into the nose, suppression of onset of acute allergic symptoms",≥ 1 cc/sec
same,flow typically selected for optimum relief,"[2]; for 5-10 seconds, mild chronic allergy attack",4-5 cc/sec
same,tolerated injection rate,"[2]; for 5 seconds or more, into the nose by most users and into the mouth by almost all users",up to 10 cc/sec
same,flow often selected for optimum relief,"[2]; severely inflamed mucosa and/or injection into the mouth, for as long as 15 seconds or longer",≥ 10 cc/sec
same,tolerance level,"[2]; typically, at the onset of the first carbon dioxide injection",< 3 cc/sec

# — US20050279350A1, “Methods and apparatus for relieving headaches, rhinitis and other common ailments” (priority 1999, published 2005)
